Source: US20040176323A1, “Pharmaceutical composition comprising lysophophatidic acid” (priority 2001, published 2004)

Tests used:
[1] = tested on: ICR mice with sepsis induced by cecal ligation and puncture; assay: Cecal ligation and puncture (CLP) model test, survival in sepsis; format: in vivo; conditions: 5 ICR mice; for 48-hour survival rate (%) (Mice survived/All mice): control 0% (0/5); for 24-hour survival rate (%) (Mice survived/All mice): control 20% (1/5)
Text: Cecal Ligation and Puncture (CLP) Model Test
To verify excellent preventive and therapeutic effects of LPA as an effective ingredient of the pharmaceutical composition according to the present invention on sepsis, this test using CLP model animals in which sepsis was caused by inducing peritonitis by cecal ligation and puncture was undertaken.
After anesthetizing 15 ICR mice (weighing about 25 to 30 g; availably from MJ Ltd.) with pentobarbital, a right region of their abdomen was excised in 1 cm length to expose cecum, followed by ligating the lower area of ileocecal valve, making six punctures on the cecum with a 21 gauge needle and then suturing the abdomen, thereby inducing sepsis with the model mice.
At 2 and 4 hours after suturing, LPA(oleoyl-sn-glycerol-3-phosphate; Sigma Co.) dissolved in 10% DMSO solution was intraperitoneally administered to 5 ICR mice at a dose of about 10 mg/kg (Group A) and to another 5 ICR mice at a dose of about 50 mg/kg (Group B), and only a 10% DMSO solution was intraperitoneally administered to the other 5 ICR mice (Control group). The survival rates of ICR mice in groups A and B and control group were investigated in course of time.

[2] = tested on: Sprague-Dawley rats with permanent focal cerebral ischemia by occlusion of middle cerebral artery; assay: Rat model with permanent focal cerebral ischemia by occlusion of middle cerebral artery, infarct area and volume; format: in vivo; conditions: 20 mg/kg subcutaneously at 1 hour before and 2 and 6 hours after surgery
Text: To verify excellent preventive and therapeutic effects of LPA as an effective component of the pharmaceutical composition according to the present invention on stroke, the test using rat models induced with permanent focal cerebral ischemia by occlusion of middle cerebral artery, designed as follows, was undertaken.
Rat Model Induced with Permanent Focal Cerebral Ischemia by Occulusion of Middle Cerebral Artery
12 male Sprague-Dawley rats weighing about 250 to 269 g, were anaesthetized through inhalation of a mixed solution of 70% […] and 30% oxygen gas, the solution containing 2% isoflurane (Choongwae Pharma Corp., Korea), and then subjected to a slightly modified Nagasawa and Kogure's method (Nagasawa H and Kogure K (1989) Correlation between cerebral blood flow and histologic changes in a new rat model of middle cerebral artery occlusion. Stroke 20: 1037-1043), leading to occlusion of their right middle cerebral artery. Specifically, rats were anaesthetized, and then their cervix was incised along by the middle line of their neck. Then, after separately ligating their right common carotid artery and their external carotid artery carefully so as not to cause damage to their vagus nerve, the junction of their internal carotid artery were slightly cut and then a 17 mm long silicon rubber cylinder was carefully inserted thereinto, followed by ligating the internal carotid artery on the inserted cylinder. […]
At 24 hours after surgery, the rats of the test group and the control group were decapitated, and their brains were rapidly extracted, followed by washing with a cold saline solution. […] After the brain sections stained with TTC were fixed with 10% phosphate-buffered formalin, the area of cerebral infarcts on the posterior side of each section, which was visualized as an area of unstained tissue, was determined separately for cortex and striatum, by using an image analyzer.
In order to correct a change in the area of cerebral infarcts due to cerebral edema, the area of cerebral infarcts on each section was determined by subtracting the […] area in the right hemisphere with occluded middle cerebral artery from the area of the left hemisphere with unoccluded middle cerebral artery. Total areas of cerebral infarcts, obtained by summing the areas of infarcts in cortex and striatum that were measured at each brain section, were averaged, and the results were shown in FIG. 1. […]

[3] = Group A: about 10 mg/kg intraperitoneally at 2 and 4 hours after suturing
[4] = Group B: about 50 mg/kg intraperitoneally at 2 and 4 hours after suturing
[5] = 24 hours after surgery, mean±standard deviation, 4 test rats, p<0.001

oleoyl-sn-glycerol-3-phosphate [LPA]
48-hour survival rate (%) (Mice survived/All mice) [1, 3]: 40% (2/5) | 24-hour survival rate (%) (Mice survived/All mice) [1, 3]: 60% (3/5) | 48-hour survival rate (%) (Mice survived/All mice) [1, 4]: 40% (2/5) | 24-hour survival rate (%) (Mice survived/All mice) [1, 4]: 60% (3/5) | reduction of the infarcted volume in cortex compared with control group rats [2, 5]: 44.6±3.6% | reduction of the infarcted volume in striatum compared with control group rats [2, 5]: 55.3±21.0% | reduction of total infarcted volume compared with control group rats [2, 5]: 47.8±7.1% | total area of infarcts (cortex and striatum) compared to control group rats ([2]; measured 24 hours after surgery, FIG. 1): noticeable reduction in total area of infarcts
